Here are results for 8 molecules from US20200187499A1, “SUBSTITUTED BENZYL-4-AMINOPICOLINIC ESTERS AND PYRIMIDINO-4-CARBOXYLIC ESTERS, METHODS FOR THE PRODUCTION THEREOF, AND USE THEREOF AS HERBICIDES AND PLANT GROWTH REGULATORS” (Bayer CropScience Aktiengesellschaft, priority 2017, published 2020).

Holding throughout (format): in vivo
Assay [1] relates to ABUTH. The assay can be described thus: Pre-emergence herbicidal action. The conditions noted are these: Table 2, pre-emergence (PE), 320 g/ha, scored after 3 weeks. An outline of the steps:
(§1)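 Compounds were applied as aqueous suspension or emulsion to the soil surface over freshly covered seeds in sandy loam. After 3 weeks under greenhouse conditions, percent herbicidal effect was assessed visually against untreated plants.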

The next assay deals with ALOMY. The assay can be described thus: Pre-emergence herbicidal action. The conditions noted are these: Table 2, pre-emergence (PE), 320 g/ha, scored after 3 weeks. Summed up: as §1
Assay [2] relates to AMARE. The assay can be described thus: Pre-emergence herbicidal action. The conditions noted are these: Table 2, pre-emergence (PE), 320 g/ha, scored after 3 weeks. Summed up: as §1
Assay [3] deals with ECHCG. Nature of the assay: Pre-emergence herbicidal action. The conditions noted are these: Table 2, pre-emergence (PE), 320 g/ha, scored after 3 weeks. An outline of the steps: as §1
Assay [4] has as its system POLCO. The assay can be described thus: Pre-emergence herbicidal action. As to conditions: Table 2, pre-emergence (PE), 320 g/ha, scored after 3 weeks. Summed up:
as §1

The test system of assay [5] is SETVI. The assay can be described thus: Pre-emergence herbicidal action. As to conditions: Table 2, pre-emergence (PE), 320 g/ha, scored after 3 weeks. Summed up: as §1
Assay [6] has as its system VIOTR. The assay can be described thus: Pre-emergence herbicidal action. The conditions noted are these: Table 2, pre-emergence (PE), 320 g/ha, scored after 3 weeks. An outline of the steps:
as §1

Assay [7] relates to ABUTH. The assay can be described thus: Post-emergence herbicidal action. As to conditions: Table 5, post-emergence (PO), 320 g/ha, assessed after about 3 weeks. Summed up: (§2)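 Percent herbicidal activity was judged by eye roughly 3 weeks post-treatment, where 0% matched untreated plants and 100% meant death. Test plants at the one-leaf stage had received a foliar spray of WP- or EC-formulated compound in aqueous form.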

Assay [8] deals with AMARE. Nature of the assay: Post-emergence herbicidal action. As to conditions: Table 5, post-emergence (PO), 320 g/ha, assessed after about 3 weeks. An outline of the steps:
as §2

Assay [9] deals with ECHCG. Nature of the assay: Post-emergence herbicidal action. The conditions noted are these: Table 5, post-emergence (PO), 320 g/ha, assessed after about 3 weeks. An outline of the steps:
as §2

In another assay the test system is PHBPU. Nature of the assay: Post-emergence herbicidal action. The conditions noted are these: Table 5, post-emergence (PO), 320 g/ha, assessed after about 3 weeks. An outline of the steps: as §2
The test system of assay [10] is POLCO. The assay can be described thus: Post-emergence herbicidal action. As to conditions: Table 5, post-emergence (PO), 320 g/ha, assessed after about 3 weeks. An outline of the steps: as §2
Assay [11] deals with SETVI. Nature of the assay: Post-emergence herbicidal action. The conditions noted are these: Table 5, post-emergence (PO), 320 g/ha, assessed after about 3 weeks. Summed up:
as §2

The subject of the next assay is STEME. The assay can be described thus: Post-emergence herbicidal action. The conditions noted are these: Table 5, post-emergence (PO), 320 g/ha, assessed after about 3 weeks. An outline of the steps:
as §2

Assay [12] concerns VIOTR. Nature of the assay: Post-emergence herbicidal action. The conditions noted are these: Table 5, post-emergence (PO), 320 g/ha, assessed after about 3 weeks. An outline of the steps:
as §2

Structures are written as SMILES.

With `Nc1cc(-c2ccc3ccsc3c2)nc(C(=O)OCc2ccc(F)cc2)c1Cl` [Example I-07, 4-fluorobenzyl 4-amino-6-(1-benzothiophen-6-yl)-3-chloropyridine-2-carboxylate], the “Herbicidal action against ABUTH” value with ABUTH [1] came to 80%; in the assay with ABUTH [7] it was 100%. For the same molecule, in the assay on ALOMY, the “Herbicidal action against ALOMY” value is 90%. Further, the “Herbicidal action against AMARE” value in the assay with AMARE [2] and in the assay with AMARE [8] was 100% in each case. Also, the “Herbicidal action against ECHCG” value in the assay on ECHCG [3] came to 100%; with ECHCG [9] it was 90%. Moreover, the “Herbicidal action against POLCO” value in the assay with POLCO [4] was 100%; in the assay with POLCO [10], 80%. The “Herbicidal action against SETVI” value in the assay on SETVI [5] was found to be 90%; with SETVI [11], 100%. The figures for the “Herbicidal action against VIOTR” value with VIOTR [6] and in the assay with VIOTR [12] were 50% and 60%, respectively. The “Herbicidal action against PHBPU” value with PHBPU came out at 80%. Further, the “Herbicidal action against STEME” value in the assay with STEME is 0%.
For the molecule `Nc1cc(-c2ccc3sccc3c2)nc(C(=O)OCc2ccc(F)cc2F)c1Cl` [Example I-18], the “Herbicidal action against ABUTH” value in the assay with ABUTH [1] is given as 40%; with ABUTH [7], 100%. Further, the “Herbicidal action against ALOMY” value in the assay with ALOMY came out at 30%. Further, the “Herbicidal action against AMARE” value in the assay on AMARE [2] and in the assay on AMARE [8] was 100% each time. The “Herbicidal action against ECHCG” value in the assay with ECHCG [3] and in the assay with ECHCG [9] was 100% in each case. Moreover, the “Herbicidal action against POLCO” value in the assay on POLCO [4] was 10%; with POLCO [10] it was 80%. In addition, the “Herbicidal action against SETVI” value in the assay with SETVI [5] was 70%; with SETVI [11] it was 90%. In addition, the entries for the “Herbicidal action against VIOTR” value in the assay on VIOTR [6] and in the assay with VIOTR [12] were 20% and 90%, respectively. In the assay on PHBPU, the “Herbicidal action against PHBPU” value turned out to be 80%. The “Herbicidal action against STEME” value in the assay on STEME is 80%.
With `Nc1c(F)c(-c2ccc3ccoc3c2)nc(C(=O)OCc2ccc(F)cc2)c1Cl` [Example I-04], the “Herbicidal action against ABUTH” value with ABUTH [1] amounted to 90%; with ABUTH [7], 100%. Besides, the “Herbicidal action against ALOMY” value in the assay on ALOMY is 40%. In addition, the “Herbicidal action against AMARE” value in the assay on AMARE [2] and in the assay with AMARE [8] was 100% in each case. The results for the “Herbicidal action against ECHCG” value in the assay on ECHCG [3] and in the assay with ECHCG [9] were 90% and 100%, respectively. Moreover, the “Herbicidal action against POLCO” value was 50% with POLCO [4] and 80% in the assay with POLCO [10]. The “Herbicidal action against SETVI” value with SETVI [5] is reported as 70%; in the assay with SETVI [11], 90%. The results for the “Herbicidal action against VIOTR” value in the assay on VIOTR [6] and in the assay with VIOTR [12] were 40% and 50%, respectively. Further, the “Herbicidal action against PHBPU” value in the assay on PHBPU is listed as 40%. Besides, the “Herbicidal action against STEME” value with STEME was 100%.
Regarding `Nc1cc(-c2ccc3occc3c2)nc(C(=O)OCc2ccc(F)cc2)c1Cl` [Example I-05], the “Herbicidal action against ABUTH” value with ABUTH [1] turned out to be 50%; in the assay with ABUTH [7], 100%. Moreover, the “Herbicidal action against ALOMY” value in the assay on ALOMY is 30%. The results for the “Herbicidal action against AMARE” value with AMARE [2] and in the assay with AMARE [8] were 90% and 100%, respectively. Also, the “Herbicidal action against ECHCG” value with ECHCG [3] is on record as 90%; in the assay on ECHCG [9], 100%. The figures for the “Herbicidal action against POLCO” value with POLCO [4] and with POLCO [10] were 90% and 30%, respectively. Further, the figures for the “Herbicidal action against SETVI” value in the assay with SETVI [5] and with SETVI [11] were 90% and 100%, respectively. Further, the “Herbicidal action against VIOTR” value with VIOTR [6] is listed as 50%; with VIOTR [12] it was 90%. Also, the “Herbicidal action against PHBPU” value with PHBPU was 80%. For the same molecule, the “Herbicidal action against STEME” value in the assay with STEME is given as 100%.
Take `Nc1cc(-c2ccc3ccsc3c2)nc(C(=O)OCc2cccc(F)c2)c1Cl` [Example I-10]: the “Herbicidal action against ABUTH” value is recorded as 30% in the assay on ABUTH [1] and 100% in the assay with ABUTH [7]. In addition, in the assay with ALOMY, the “Herbicidal action against ALOMY” value is given as 70%. Moreover, the “Herbicidal action against AMARE” value with AMARE [2] and with AMARE [8] was 100% each time. Moreover, the “Herbicidal action against ECHCG” value with ECHCG [3] is reported as 100%; with ECHCG [9], 90%. Moreover, the “Herbicidal action against POLCO” value in the assay on POLCO [4] was found to be 0%; with POLCO [10], 100%. Also, the “Herbicidal action against SETVI” value with SETVI [5] and in the assay with SETVI [11] was 90% throughout. The entries for the “Herbicidal action against VIOTR” value in the assay with VIOTR [6] and in the assay on VIOTR [12] were 40% and 70%, respectively. Moreover, the “Herbicidal action against PHBPU” value with PHBPU is on record as 80%. For the same molecule, the “Herbicidal action against STEME” value with STEME is on record as 100%.
As for `Nc1cc(-c2ccc3ccoc3c2)nc(C(=O)OCc2cccc(F)c2)c1Cl` [Example I-02], the “Herbicidal action against ABUTH” value in the assay on ABUTH [1] was determined as 30%; in the assay with ABUTH [7], 90%. The “Herbicidal action against ALOMY” value in the assay on ALOMY is recorded as 80%. For the same molecule, the “Herbicidal action against AMARE” value in the assay with AMARE [2] and with AMARE [8] was 100% throughout. In addition, the “Herbicidal action against ECHCG” value in the assay with ECHCG [3] is 100%; with ECHCG [9] it was 90%. Moreover, the “Herbicidal action against POLCO” value with POLCO [4] and in the assay on POLCO [10] was 100% in each case. The “Herbicidal action against SETVI” value in the assay with SETVI [5] came out at 90%; with SETVI [11] it was 100%. For the same molecule, the “Herbicidal action against VIOTR” value with VIOTR [6] and with VIOTR [12] was 70% throughout. Also, the “Herbicidal action against PHBPU” value with PHBPU was 70%. Further, the “Herbicidal action against STEME” value in the assay with STEME is 100%.
On to `Nc1cc(-c2ccc3sccc3c2)nc(C(=O)OCc2cccc(F)c2)c1Cl` [Example I-09], for which the “Herbicidal action against ABUTH” value with ABUTH [1] amounted to 70%; with ABUTH [7], 100%. Besides, in the assay with ALOMY, the “Herbicidal action against ALOMY” value came out at 20%. The “Herbicidal action against AMARE” value in the assay on AMARE [2] is recorded as 90%; in the assay with AMARE [8], 100%. The “Herbicidal action against ECHCG” value with ECHCG [3] and in the assay on ECHCG [9] was 100% in each case. Also, the “Herbicidal action against POLCO” value in the assay on POLCO [4] turned out to be 90%; with POLCO [10] it was 70%. Also, the “Herbicidal action against SETVI” value with SETVI [5] and in the assay on SETVI [11] was 90% in each case. Also, the “Herbicidal action against VIOTR” value is reported as 60% in the assay with VIOTR [6] and 90% in the assay on VIOTR [12]. Further, the “Herbicidal action against PHBPU” value in the assay on PHBPU was determined as 80%. In the assay on STEME, the “Herbicidal action against STEME” value was 100%.
Consider `Nc1cc(-c2ccc3occc3c2)nc(C(=O)OCc2ccc(F)c(F)c2F)c1Cl` [Example I-13], for which the “Herbicidal action against ABUTH” value was 30% in the assay with ABUTH [1] and 100% in the assay with ABUTH [7]. Besides, the “Herbicidal action against ALOMY” value in the assay with ALOMY came to 80%. Further, the “Herbicidal action against AMARE” value in the assay with AMARE [2] and in the assay with AMARE [8] was 100% in each case. The “Herbicidal action against ECHCG” value in the assay with ECHCG [3] and in the assay with ECHCG [9] was 90% in each case. The “Herbicidal action against POLCO” value with POLCO [4] and in the assay on POLCO [10] was 100% throughout. Further, the “Herbicidal action against SETVI” value with SETVI [5] came to 100%; with SETVI [11] it was 90%. The results for the “Herbicidal action against VIOTR” value in the assay with VIOTR [6] and in the assay on VIOTR [12] were 30% and 100%, respectively. Also, the “Herbicidal action against PHBPU” value in the assay on PHBPU worked out at 80%. Further, in the assay on STEME, the “Herbicidal action against STEME” value was 100%.
